Experimental data as given in patent publication US6982249B1, “Bradykinin analogs as selective inhibitors of cell activation” (The Regents of the University of Michigan, priority 1997, dated 2006).
“Also recorded” adds a separate entry of the source. Like-named read-outs stand apart in the source and are kept apart here. Square brackets hold non-standard residues; d marks the D form. Ends that are not written are not given here.

Experiments:
[1] = tested on: γ-thrombin-induced platelet aggregation; assay: γ-thrombin-induced platelet aggregation in human platelet-rich plasma; format: cell-based; settings: for inhibition of γ-thrombin-induced platelet aggregation (in words): assay like Example 1A
Method: For human platelet aggregation studies, 50 ml human blood was collected into a syringe containing 5 ml of 0.013 M sodium citrate. The anticoagulated blood was centrifuged at 180 xg for 10 minutes at room temperature and the platelet-rich plasma was the supernatant. Platelet aggregation studies in platelet-rich plasma were performed in the cuvette of an aggregometer using γ-thrombin (Haematologic Technologies, Essex Junction, Vt.). After standardization of the aggregometer, the threshold dose of γ-thrombin, defined as the minimal concentration that will induce full platelet aggregation, was ascertained for each preparation of platelet-rich plasma. Typically, the threshold dose of γ-thrombin was between 5 and 30 nM.
Various concentrations of the peptide being tested were added to the platelet-rich plasma in the cuvette of the aggregometer. Platelet aggregation was induced by the addition of γ-thrombin. The degree of platelet aggregation was determined by measuring (in arbitrary units) the increase in light transmission through the stirred suspension of platelet-rich plasma. […]
The peptides synthesized in Example 4 were assayed for the ability to inhibit γ-thrombin-induced platelet aggregation in platelet-rich plasma.

[2] = tested on: fibroblasts (thrombin receptor, PAR 1); assay: α-thrombin-induced calcium mobilization in fibroblasts; format: cell-based
Method: A variation of the calcium mobilization assay uses fibroblasts (which express a single receptor for thrombin, PAR 1), umbilical vein endothelial cells, or other cells which express the cloned thrombin receptor, and which grow in monolayers on the bottom of plastic wells.
Fibroblasts or endothelial cells were grown in 24-96 well plates and loaded with the fluorescent Ca^2+ indicator fura-2 acetyloxymethylester (5 μM, Molecular Probes Inc.) by incubation for 60 min. in HEPES-Tyrode's buffer at 37° C. After washing the cells, the fluorescence of the cells was monitored on a thermostatically controlled heated pad at 37° C. for 1 min, then the cells were incubated with α-thrombin (1 to 5 nM) in the absence or presence of a BK analog. Fluorescence was detected by a Perkin-Elmer LS-50B Luminescence Spectrofluorometer. Excitation was measured at 340 and 380 nm wavelength and emission was assessed at 510 nm. The cytosolic Ca^2+ levels were determined as described above. The Rmax value was determined using 10 mM Ca^2+ in the presence of 20 μM Ionophor A23187; Rmin was determined in the presence of 20 mM EDTA.
The ability of BK analogs to inhibit α-thrombin-induced calcium mobilization in fibroblasts and human umbilical vein endothelial cells (HUVEC) was assayed as described in Example 1C.

[3] = molecular target: T1, NAT12 (thrombin receptor cleavage site) (Homo sapiens, UniProt P25116); assay: Binding of biotinylated NAT12 to peptides linked to microtiter plates; settings: peptide linked to microtiter plate
T1 construct: spans amino acids 35-46 of the α-thrombin cleavage site on the thrombin receptor
Method: (§1) Peptides from a combinatorial library are linked to microtiter plates and the wells are blocked with 1% BSA. Biotinylated-NAT12 is incubated with the microtiter plates. After washing, the presence of biotin-NAT12 attached to the matrix support expressing peptides is detected by incubation with ImmunoPure streptavidin horseradish peroxidase conjugate (Pierce Chemical Co., Rockville Ill.) followed by peroxidase-specific fast reacting substrate, turbo-3,3′,5,5′-tetramethylbenzidine (turbo-TMB, Pierce Chemical Co., Rockville Ill.). After incubation for 5 min at room temperature, the color reaction of the turbo-TMB is stopped by the addition of 1 M phosphoric acid. The bound peptide is quantified by measuring the absorbance of the reaction mixture at 450 nm using a Microplate auto reader EL311 (BioTek Instrument, Winooski Vt.).
The specific binding of biotinylated NAT12 to BK analogs and other peptides was assayed as described in Example 2A.

[4] = Observations of the animals after bolus injection (blood pressure, pulse, platelet count, bleeding); format: in vivo, New Zealand white rabbits; settings: rabbit, i.v. bolus
Method: (§2) Clearance studies were performed in New Zealand white rabbits weighing between 2.0 and 2.5 kg. Rabbits were premedicated according to the method of Michelson et al., J. Mol. Cell Cardiol. 20, 547 (1988) with 10 mg/kg 1 M xylazine and 10 mg/kg 1 M ketamine. After tracheostomy, intubation, and positive pressure ventilation done with room air (Harvard instruments), stage III surgical anesthesia was maintained with 20 mg/ml of intravenous pentobarbital. A carotid artery and a jugular vein were then exposed. A catheter was inserted into the exposed carotid artery for withdrawal of blood samples and monitoring the animal's blood pressure (Gould, Inc., Cardiovascular Products, Oxnard. Calif.). In a similar manner, a catheter was inserted into the exposed jugular vein for administering the anesthetic and BK analog.
(§3) A single intravenous infusion of BK analog was injected. The amount of BK analog injected was calculated from the weight of the animal such that the blood concentration was 1 mM peptide. For example: for a 2.5 kg rabbit, 7% of its weight gives an estimated blood volume of 175 ml. Accordingly, 89 mg of the control BK fragment SEQ ID NO:7 was injected (giving a 1 mM concentration in the 175 ml plasma). Depending upon the size of the animal, 75 to 90 mg peptide was injected. Blood samples were collected at 2, 4, 6, 8, 10, 20, 30, 40, 60, 90, and 120 minute intervals after infusion into a 0.013 M sodium citrate anticoagulant solution. Plasma was prepared from each of the blood samples collected over time by centrifugation of the blood samples at 10,000×g for two minutes. Aliquots of the plasmas were assayed for the presence of the BK analog antigen by the ELISA technique using a MARKIT-M [1-5] BK assay from Dainippon Pharmaceutical Co., Ltd., Osaka, Japan.

[5] = In vivo clearance after single intravenous infusion (plasma ELISA); set-up: species or system New Zealand white rabbits; settings: rabbit; for half-life: single i.v. infusion
Method: as §2, §3

[6] = molecular target: T2, NAT12 (SEQ ID NO:2), α-thrombin cleavage site on the thrombin receptor (Homo sapiens, UniProt P25116); assay: α-thrombin cleavage of NAT12 peptide (HPLC); format: biochemical; settings: 1 mM peptide, 8 nM α-thrombin
T2 construct: spans amino acids 35-46 of the α-thrombin cleavage site on the thrombin receptor
Method: The peptide NAT12 (SEQ ID NO:2), which spans amino acids 35-46 of the α-thrombin cleavage site on the thrombin receptor (Vu et al., Cell 64, 1057 (1991), was also used to determine whether BK analogs blocked α-thrombin cleavage of the cloned receptor.
The cleavage studies were performed according to the method of Molino et al., J. Biol. Chem. 270, 11168 (1995). Briefly, NAT12 (SEQ ID NO:2) was dissolved in a solution of 0.01 M NaH2PO4 and 0.15 M NaCl, pH 7.4. The mixture was then incubated with 8 nM α-thrombin for one hour at 37° C. either in the absence (control) or presence of 1 mM of a BK analog. Following incubation, the mixture was applied to a Vyadec C-18 HPLC column in 0.1% trifluoroacetic acid and eluted with a gradient from 0% to 100% of 80% MeCN and 0.1% trifluoroacetic acid. The sizes of the separated products were confirmed by mass spectrometry.
NAT12 (SEQ ID NO:2) produced a single peak (peak 1) when analyzed by HPLC. […] The additional peaks, peaks 3 and 2, represent the cleavage products of NAT12.

NAT12 = molecular target: T3, NAT12; assay: cell-based or functional assay
T3 chain: NATLDPRSFLLR

RPPGC = molecular target: T4, RPPGC (not fully specified); assay: microtiter plate assay, plate-linked peptide, biotin-NAT12 detected with streptavidin-HRP
T4 peptide: RPPGC
Method: as §1, with “turbo-3,3',5,5'-tetramethylbenzidine” for “turbo-3,3′,5,5′-tetramethylbenzidine”
(§4) Peptides from a combinatorial library are linked to a microtiter plate and blocked with 1% BSA. Biotinylated-NAT12 is incubated with the microtiter plate. After washing, the presence of biotin-NAT12 attached to the matrix support expressing peptides is detected by incubation with Immu-noPure streptavidin horseradish peroxidase conjugate (Pierce Chemical Co., Rockville Ill.) followed by peroxidase-specific fast reacting substrate, turbo-3,3',5,5'-tetramethylbenzidine (turbo-TMB, Pierce Chemical Co., Rockville Ill.). After incubation for 5 min at room temperature, the color reaction of the turbo-TMB is stopped by the addition of 1 M phosphoric acid. The bound peptide is quantified by measuring the absorbance of the reaction mixture at 450 nm using a Microplate auto reader EL311 (BioTek Instrument, Winooski Vt.). Compounds which bind the NAT12 peptide are also assayed for the ability to inhibit platelet aggregation and the ability to inhibit calcium mobilization, using the assays described in Example 1.

LNA7 = molecular target: T5, LNA7; assay: as above
T5 construct: Control peptide
T5 peptide: LNAENNA
Method: as §1, with “turbo-3,3',5,5'-tetramethylbenzidine” for “turbo-3,3′,5,5′-tetramethylbenzidine”
as §4

FSPFR = molecular target: T6, FSPFR; assay: as above
T6 construct: Control peptide
T6 peptide: FSPFR
Method: as §1, with “turbo-3,3',5,5'-tetramethylbenzidine” for “turbo-3,3′,5,5′-tetramethylbenzidine”
as §4

Molecule: Arg-Pro
- inhibition of γ-thrombin-induced platelet aggregation (in words) ([1]; human PRP): no inhibitory activity

Molecule: Arg-Pro-Pro [RPP]
- γ-thrombin-induced platelet aggregation at 50 μM peptide (FIG. 2) ([1]; 50 μM peptide, 27.5 nM γ-thrombin): abolish
- fold better as an inhibitor than RPPGF ([1]; 100% inhibition of γ-thrombin-induced aggregation, same conditions): greater than 2.5 fold
- inhibition of γ-thrombin-induced platelet aggregation (in words) ([1]; human PRP): showed inhibition
- concentration that inhibited γ-thrombin-induced platelet aggregation 100% ([1]; mean±SD of 3 or 5 experiments, human PRP): 0.089 mM
- inhibition of α-thrombin-induced calcium mobilization in fibroblasts (FIG. 5) [2]: inhibited calcium mobilization; also recorded: inhibition

Molecule: Arg-Pro-Pro-Ala-Phe (RPPAF; bradykinin analog)
- inhibition of γ-thrombin-induced platelet aggregation (in words) ([1]; human PRP): showed inhibition

Molecule: Arg-Pro-Pro-Amide [RPP-Amide]
- inhibition of γ-thrombin-induced platelet aggregation (in words) ([1]; human PRP): reduced ability

Molecule: Arg-[dP]-Pro
- inhibition of γ-thrombin-induced platelet aggregation (in words) ([1]; human PRP): reduced ability

Molecule: FSPFR: peptide FSPFR (SEQ ID NO: 10) (bradykinin analog)
- specific binding of biotinylated NAT12 to the peptide (FIG. 4) [3]: not

Molecule: LNA7: non-BK analog peptide (SEQ ID NO:8) (LNAENNA; bradykinin analog)
- inhibition of γ-thrombin-induced platelet aggregation ([1]; 1 mM peptide, 20 nM γ-thrombin, human PRP): unable to inhibit
- specific binding of biotinylated NAT12 to the peptide (FIG. 4) [3]: not

Molecule: RPPGC: peptide RPPGC (SEQ ID NO:9) (bradykinin analog)
- specific binding of biotinylated NAT12 to the peptide (FIG. 4) [3]: specifically bound

Molecule: RPPGF [RPPGF, Arg-Pro-Pro-Gly-Phe]
- bleeding at the surgical sites of cutdowns and intubations [4]: no abnormal bleeding
- blood pressure, pulse, and platelet count [4]: remained stable
- unfavorable effects following the bolus injection [4]: No unfavorable effects were observed
- Cmax ([5]; New Zealand white, plasma, iv, single i.v. infusion 75 to 90 mg, ELISA, two of three rabbits, read-out: peak plasma concentration after infusion): 60 µg/mL
- half-life ([5]; New Zealand white, plasma, iv, read-out: half-life of antigen clearance in plasma, first phase): 2.8 min
- half-life ([5]; New Zealand white, plasma, iv, read-out: half-life of antigen clearance in plasma, second phase): 20 min
- peak plasma concentration after infusion ([5]; single i.v. infusion 75 to 90 mg, ELISA, two of three rabbits): 0.120 mM
- reduction of NAT12 peak 1 area after α-thrombin treatment ([6]; 1 h 37° C., without peptide 81%): 57%
- NAT12 cleavage product peak 2, share of original peak area ([6]; without peptide 37%): 26%
- NAT12 cleavage product peak 3, share of original peak area ([6]; without peptide 44%): 31%

Molecule: [dR]-Pro-Pro
- inhibition of γ-thrombin-induced platelet aggregation (in words) ([1]; human PRP): reduced ability

Molecule: RPPGF (modifications not checked) [Arg-Pro-Pro-Gly-Phe (RPPGF)]
- cleavage product peak 2, as a share of the original NAT12 peak area, in the presence of 1 mM peptide (NAT12): 26%
- cleavage product peak 3, as a share of the original NAT12 peak area, in the presence of 1 mM peptide (NAT12): 31%
- reduction of the NAT12 HPLC peak area (peak 1) after alpha-thrombin in the presence of 1 mM peptide (NAT12): 57%

B1: biotinylated NAT12 (peptide)
peptide: NATLDPRSFLLR
modifications: also: biotinylated (position not given here)
notes: It was in solution in the microtiter plate assay; also called biotin-NAT12
- binding result (RPPGC): binds
- binding result (LNA7): no binding
- binding result (FSPFR): no binding
